These results are taken from patent publication US11702422B2, “Imidazopyridazines as modulators of IL-17” (Janssen Pharmaceutica NV, priority 2020, dated 2023).

For assay [1], the target named is IL-17A(FLAG-Tagged): IL-17RA(His-Tagged) (Homo sapiens, UniProt Q16552, K93Q). Briefly: IL-17A(FLAG-Tagged): IL-17RA(His-Tagged) Binding Disruption Eu-HTRF Assay. Conditions: IL-17A/IL-17RA binding disruption, simple average if tested more than once. The source says:
IL-17A(FLAG-Tagged): IL-17RA(His-Tagged) Binding Disruption Eu-HTRF Assay
An antibody directed against the FLAG tag of IL-17A (SEQ ID NO:1) is labeled with the HTRF donor chromophore (Europium-cryptate). IL-17A is present as a dimer that is “locked into” this quaternary structure due to the formation of loop-spanning […] disulfide bridges. The construct of IL-17RA used in the assay excludes the […] portion of the receptor and is fused to a C-terminal 10×His tag (SEQ ID NO:2). An antibody directed against the His tag of the IL-17RA chimera is labeled with the HTRF acceptor chromophore (“D2”). The fluorescence-resonance energy transfer (FRET) depends on the vicinity of the donor chromophore to the acceptor, and interruption of the binding between the IL-17A and IL-17RA causes the reduction/loss of FRET. Therefore, this assay allows to evaluate the compound effect on the binding IL-17A and IL-17RA by monitoring the fluorescence intensity of donor vs acceptor. The assay is run as described below.
40 nl of 2-fold serial diluted compound solution for total 22 dilution points is added into each well of a 1536-well, white, low-volume, non-binding plate (Greiner #782904), then 2 μl of FLAG tagged IL-17A at 2× final concentration (2.5 nM) in solution of PBS+0.01% Triton-X100 is added to each well. The assay plate is briefly centrifuged then incubated for 1 h at rt. A mixed solution is prepared containing 2×5 nM 10HIS×IL-17RA, 2×2.5 nM Eu-anti-FLAG (CISBIO), 2×5 nM D2-anti-HIS (CISBIO) in PBS+0.01% Triton-X100+200 mM Potassium Fluoride (Sigma 60238) and 2 μl of mix is added to each well of the assay plate. The plate is briefly centrifuged then incubated for 2 h at rt. The HTRF intensities at the wavelength of donor (620 nm) and acceptor (665 nm) are measured using BMG Pherastar. The ratio between intensities at two wavelengths is calculated and plotted against the compound concentration and the data is fitted to a one-site competition model to yield IC50 of the compound.

Assay [2] deals with IL-17A-induced G-CSF production in human normal keratinocyte (NHK). Nature of the assay: NHK Assay: IL-17A-induced G-CSF production in human normal keratinocytes. Conditions: 24 h, adult normal human keratinocytes, IL-17A 5 ng/mL, simple average if tested more than once. The format is cell-based. In short, it runs like this:
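HTRF read-out of supernatant G-CSF, quantified from a standard curve, gave IC50 values. Adult keratinocytes, 3000-4000 cells/well, received human IL-17A (5 ng/mL final) pre-mixed 1 h at rt with compound, in 5% FBS and 0.2% DMSO, 24 h at 37° C.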

Chain of UniProt Q16552 (Q16552 with tags, fused parts or gaps K93Q): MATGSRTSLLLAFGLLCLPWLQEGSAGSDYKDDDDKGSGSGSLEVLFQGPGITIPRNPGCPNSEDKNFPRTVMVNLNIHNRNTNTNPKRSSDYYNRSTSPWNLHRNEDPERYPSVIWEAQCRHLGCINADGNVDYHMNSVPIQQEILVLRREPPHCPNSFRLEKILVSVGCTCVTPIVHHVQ

Consider `CC(C)c1nocc1C(=O)N[C@H](c1cn2ncc([C@H](NC(=O)CCC(F)(F)F)C3CC3)cc2n1)C1CCC(F)(F)CC1` [Example 76, N—((S)-(7-((R)-Cyclopropyl(4,4,4-trifluorobutanamido)methyl)imidazo[1,2-b]pyridazin-2-yl)(4,4-difluorocyclohexyl)methyl)-3-isopropylisoxazole-4-carboxamide], for which the 50% inhibitory concentration (IC50) (commonly the concentration that gives 50% inhibition) was 67 nM in assay [1] and 67 nM in assay [2] (Homo sapiens, Keratinocyte).

Turning to `O=C(CC1CC(F)(F)C1)N[C@@H](c1cnn2cc([C@@H](NC(=O)c3nocc3C3CC3)C3CCC(F)(F)CC3)nc2c1)C1CC1` [Example 403, 4-Cyclopropyl-N—((S)-(7-((R)-cyclopropyl(2-(3,3-difluorocyclobutyl)acetamido)methyl)imidazo[1,2-b]pyridazin-2-yl)(4,4-difluorocyclohexyl)methyl)isoxazole-3-carboxamide], the IC50 was 63 nM in assay [1] and 170 nM in assay [2] (Homo sapiens, Keratinocyte).

Regarding `O=C(CCC(F)(F)F)NC(c1cnn2cc([C@@H](NC(=O)c3ccccc3)C3CCC(F)(F)CC3)nc2c1)C1CC1` (single isomer, unassigned) [Example 12, N—((S)-(7-((R*)-Cyclopropyl(4,4,4-trifluorobutanamido)methyl)imidazo[1,2-b]pyridazin-2-yl)(4,4-difluorocyclohexyl)methyl)benzamide], the values for the half-maximal inhibitory concentration (IC50) in assay [1] and in assay [2] were 85 nM and 180 nM, respectively.

Turning to `O=C(CCC(F)(F)F)N[C@@H](c1cnn2cc([C@@H](NC(=O)C3CC34CCC4)C3CCC(F)(F)CC3)nc2c1)C1CC1` (stereo partly drawn) [Example 45, N—((S)-(7-((R)-Cyclopropyl(4,4,4-trifluorobutanamido)methyl)imidazo[1,2-b]pyridazin-2-yl)(4,4-difluorocyclohexyl)methyl)spiro[2.3]hexane-1-carboxamide], the 50% inhibitory concentration (IC50) was determined as 240 nM in assay [1] and 710 nM in assay [2] (Homo sapiens, Keratinocyte).

With `N#CC1([C@@H](NC(=O)C[C@H]2CC2(F)F)c2cnn3cc([C@@H](NC(=O)c4nonc4C4CC4)C4CCC(F)(F)CC4)nc3c2)CCC1` (relative stereo) [Example 449, N—((S)-(7-((S*)-(1-Cyanocyclobutyl)(2-((S*)-2,2-difluorocyclopropyl)acetamido)methyl)imidazo[1,2-b]pyridazin-2-yl)(4,4-difluorocyclohexyl)methyl)-4-cyclopropyl-1,2,5-oxadiazole-3-carboxamide], the IC50 was 28 nM in assay [1] and 4.7 nM in assay [2] (Homo sapiens, Keratinocyte).

`O=C(CCC(F)(F)F)N[C@@H](c1cnn2cc([C@@H](NC(=O)c3ccc(F)cc3)C3CCC(F)(F)CC3)nc2c1)C1CC1` [Example 182, N—((S)-(7-((R)-Cyclopropyl(4,4,4-trifluorobutanamido)methyl)imidazo[1,2-b]pyridazin-2-yl)(4,4-difluorocyclohexyl)methyl)-4-fluorobenzamide]: the half-maximal inhibitory concentration (IC50) in assay [1] came to 85 nM; in assay [2] (Homo sapiens, Keratinocyte) it was 510 nM.

As for `O=C(CCC(F)(F)F)NC(c1cnn2cc([C@@H](NC(=O)c3cnn(CCC(F)(F)F)n3)C3CCC(F)(F)CC3)nc2c1)C1CC1` (single isomer, unassigned) [Example 18, N—((S)-(7-((R*)-Cyclopropyl(4,4,4-trifluorobutanamido)methyl)imidazo[1,2-b]pyridazin-2-yl)(4,4-difluorocyclohexyl)methyl)-2-(3,3,3-trifluoropropyl)-2H-1,2,3-triazole-4-carboxamide], the 50% inhibitory concentration (IC50) worked out at 190 nM in assay [1] and 420 nM in assay [2].

For `O=C(CC1CC(F)(F)C1)NC(CC(F)F)c1cnn2cc([C@@H](NC(=O)c3nonc3C3CC3)C3CCC(F)(F)CC3)nc2c1` (single isomer, unassigned) [Example 400, 4-Cyclopropyl-N—((S)-(7-((R*)-1-(2-(3,3-difluorocyclobutyl)acetamido)-3,3-difluoropropyl)imidazo[1,2-b]pyridazin-2-yl)(4,4-difluorocyclohexyl)methyl)-1,2,5-oxadiazole-3-carboxamide], the half-inhibitory concentration (IC50) is 49 nM in assay [1] and 35 nM in assay [2] (Homo sapiens, Keratinocyte).

Turning to `O=C(CCC(F)(F)F)N[C@@H](c1cnn2cc([C@@H](NC(=O)c3cnn(CCOC(F)F)c3)C3CCC(F)(F)CC3)nc2c1)C1CC1` [Example 37, N—((S)-(7-((R)-Cyclopropyl(4,4,4-trifluorobutanamido)methyl)imidazo[1,2-b]pyridazin-2-yl)(4,4-difluorocyclohexyl)methyl)-1-(2-(difluoromethoxy)ethyl)-1H-pyrazole-4-carboxamide], the 50% inhibitory concentration (IC50) came to 230 nM in assay [1] and 630 nM in assay [2] (Homo sapiens, Keratinocyte).

`O=C(CCC(F)(F)F)N[C@@H](c1cnn2cc([C@@H](NC(=O)c3conc3CC3CC3)C3CCC(F)(F)CC3)nc2c1)C1CC1` [Example 236, N—((S)-(7-((R)-Cyclopropyl(4,4,4-trifluorobutanamido)methyl)imidazo[1,2-b]pyridazin-2-yl)(4,4-difluorocyclohexyl)methyl)-3-(cyclopropylmethyl)isoxazole-4-carboxamide]: the IC50 was 46 nM in assay [1] and 360 nM in assay [2] (Homo sapiens, Keratinocyte).

Regarding `O=C(CCC(F)(F)F)N[C@@H](c1cnn2cc([C@@H](NC(=O)c3cnnn3CCCF)C3CCC(F)(F)CC3)nc2c1)C1CC1` [Example 112, N—((S)-(7-((R)-Cyclopropyl(4,4,4-trifluorobutanamido)methyl)imidazo[1,2-b]pyridazin-2-yl)(4,4-difluorocyclohexyl)methyl)-1-(3-fluoropropyl)-1H-1,2,3-triazole-5-carboxamide], the IC50 in assay [1] is 120 nM; in assay [2] (Homo sapiens, Keratinocyte), 160 nM.

Take `O=C(CCC(F)(F)F)N[C@@H](c1cnn2cc([C@@H](NC(=O)[C@@H]3C(F)(F)C34CCC4)C3CCC(F)(F)CC3)nc2c1)C1CC1` (relative stereo) [Example 369, (R*)—N—((S)-(7-((R*)-Cyclopropyl(4,4,4-trifluorobutanamido)methyl)imidazo[1,2-b]pyridazin-2-yl)(4,4-difluorocyclohexyl)methyl)-2,2-difluorospiro[2.3]hexane-1-carboxamide]: the IC50 was determined as 140 nM in assay [1] and 530 nM in assay [2] (Homo sapiens, Keratinocyte).

As for `Cc1nonc1C(=O)N[C@H](c1cn2ncc(C(NC(=O)CC3CC(F)(F)C3)C3CCC3)cc2n1)C1CCC(F)(F)CC1` (single isomer, unassigned) [Example 494, N—((S)-(7-((S*)-Cyclobutyl(2-(3,3-difluorocyclobutyl)acetamido)methyl)imidazo[1,2-b]pyridazin-2-yl)(4,4-difluorocyclohexyl)methyl)-4-methyl-1,2,5-oxadiazole-3-carboxamide], the concentration for half-maximal inhibition (IC50) in assay [1] was 1000 nM; in assay [2], greater than 20000 nM.

Regarding `CC(C)n1nccc1C(=O)N[C@H](c1cn2ncc([C@H](NC(=O)C[C@H]3CC3(F)F)C3CC3)cc2n1)C1CCC(F)(F)CC1` (single isomer, unassigned) [Example 140], the 50% inhibitory concentration (IC50) is 70 nM in assay [1] and 89 nM in assay [2] (Homo sapiens, Keratinocyte).

As for `Cc1nonc1C(=O)N[C@H](c1cn2ncc([C@H](NC(=O)CC3CC(F)(F)C3(F)F)C3CC3)cc2n1)C1CCC(F)(F)CC1` (single isomer, unassigned) [Example 325, N—((S)-(7-((R)-Cyclopropyl(2-((S*)-2,2,3,3-tetrafluorocyclobutyl)acetamido)methyl)imidazo[1,2-b]pyridazin-2-yl)(4,4-difluorocyclohexyl)methyl)-4-methyl-1,2,5-oxadiazole-3-carboxamide], the IC50 worked out at 91 nM in assay [1] and 300 nM in assay [2].

On to `Cn1ccnc1C(=O)N[C@H](c1cn2ncc([C@H](NC(=O)CCC(F)(F)F)C3CC3)cc2n1)C1CCC(F)(F)CC1` [Example 469, N—((S)-(7-((R)-Cyclopropyl(4,4,4-trifluorobutanamido)methyl)imidazo[1,2-b]pyridazin-2-yl)(4,4-difluorocyclohexyl)methyl)-1-methyl-1H-imidazole-2-carboxamide], for which the IC50 is 1200 nM in assay [1] and greater than 20000 nM in assay [2] (Homo sapiens, Keratinocyte).

Regarding `Cc1ncncc1C(=O)N[C@H](c1cn2ncc([C@H](NC(=O)CCC(F)(F)F)C3CC3)cc2n1)C1CCC(F)(F)CC1` [Example 222, N—((S)-(7-((R)-Cyclopropyl(4,4,4-trifluorobutanamido)methyl)imidazo[1,2-b]pyridazin-2-yl)(4,4-difluorocyclohexyl)methyl)-4-methylpyrimidine-5-carboxamide], the IC50 in assay [1] is 1000 nM; in assay [2] (Homo sapiens, Keratinocyte), greater than 20000 nM.
